Results on six molecules are retold here after patent US10421780B2, “Peptide for targeting autophagic cells and use thereof” (Kyungpook National University Industry-Academic Cooperation …, priority 2015, dated 2019).

Ends that are not written are not given here.

In assay [1] the test system is MDA-MB-231 tumor tissue after rapamycin autophagy induction. Nature of the assay: Microscopy of tumor frozen sections for peptide target signal. The following applies: flamma 675-labeled peptide; five hours after the peptide injection; frozen sections (FIG. 10). Type of assay: in vivo, nude mouse. Here is the method: After five hours of the peptide injection, the image were acquired. Then the mice were sacrificed and the tumors were separated and frozen sections of tissues were prepared. Six μm-thickness tumor frozen sections were stained with DAPI for nuclear staining and immunostained with LC3 antibody for autophagy induction. The signal of flamma 675 (FPR675) dye, LC3 and DAPI were observed as red, green and blue under a microscope, respectively.

Assay [2] has as its system autophagy cells (rapamycin-treated HeLa or MDA-MB-231 cells). Nature of the assay: Immunofluorescent staining of phage clones on rapamycin-treated cells. It counts as cell-based. The following applies: phage clones displaying the peptide; rapamycin 4 hr; anti-M13 immunofluorescence (FIG. 4). Here is the method: A phage clone with high specificity for binding to autophagy cells was selected through phage binding ELISA for autophagy cells. More specifically, For binding of each phage clone in vitro, cells were seeded at 2×10^4 cells/well in a 96-well culture plate and cultured in 80˜90% confluence. And then cells were treated with rapamycin in serum-free medium for 4 hours, then washed with PBS and blocked with 1% BSA for 30 minutes at room temperature. The treated cells were then incubated with each phage clone (1×10^9 pfu/well). The pool of a phage library was used as a control. After 1 hour incubation at 4° C. with a phage clone, the cells were washed again with PBS and fixed with […] (in DMEM). Next, HRP-conjugated anti-M13 phage monoclonal antibody (1:3000 dilution, NEB) was added to M13 phage and incubated at room temperature for one hour. The cells were washed three times with PBS, and the TMB substrate (100/well) was treated for 2-10 min for color development and the reaction was terminated by treatment with 2M H2SO4. The final color product was measured at 450 nm wavelength in microtitration plate reader (Sunrise, Tecan Austria) using a windows based program XFluor4.
Further, after the phage clones selected for the rapamycin-treated cells were cultured as described above, immunofluorescent staining was performed using a mouse monoclonal antibody to M13 phage (mouse anti-M13 monoclonal antibody, diluted 1:3000) and Alexa 549-labeled antibody (Alexa 549-conjugated anti-mouse IgG antibody, abcam) against the mouse antibody as a secondary antibody in a conventional manner to confirm the attachment specificity and effect of the phage clones, and used for screening. […] The four peptide sequences of the clones is as follows; CKHHLGAIC (AtgPep-1, SEQ ID NO: 1), CQQTKNYYC (AtgPep-2, SEQ ID NO: 2), CNTGSPYEC: SEQ ID NO: 3 (AtgPep-3, SEQ ID NO: 3), CPPNTDRSC (AtgPep-4, SEQ ID NO: 4). […] It was confirmed that the phage clones displaying AtgPep-1 to AtgPep-4 specifically bind to autophagy cells respectively. In particular, it was confirmed that the phage clones specifically bind to the autophagy cells even in the initial (4 hr) autophagy state.

Assay [3] has as its system pEGFP-LC3-transfected MDA-MB-231 cells treated with EBSS. Nature of the assay: Detection of autophagy cells in the early stages of autophagy induction, fluorescence microscopy. Type of assay: cell-based. The following applies: for fluorescence signal on early autophagy cells: Rhodamine B-labeled peptide 10 μmol/L, 4° C. 1 hour, EBSS 2 hours (FIG. 6); for site of binding on autophagy-induced cells: rhodamine-labeled peptide, single MDA-MB-231 cell (FIGS. 7A and 7B). As for the experimental part: (§1) pEGFP-LC3-transfected MDA-MB-231 cells were cultured on an eight-chamber slide and were treated with EBSS (Earl's balanced salt solution) for 2 hours to induce autophagy. Cells were then washed with PBS and treated with 10 μmol/L of each solution of Rhodamine B-labeled AtgPep-1 to AtgPep-4 (provided in PBS diluted) and incubated at 4° C. for 1 hour. Then 1% BSA was treated at 4° C. for 1 hour. The cells were fixed with 4% paraformaldehyde for 5 minutes. The cells were then stained with […] (DAPI) and mounted on a fluorescence microscope (Zeiss, Oberkochen, Germany).

Assay [4] relates to HeLa cell, Chang cell and BEAS-2B cell. Nature of the assay: Detection of autophagy cells in other cell types, fluorescence microscopy. The following applies: rhodamine B labeled, BEAS-2B cells (FIG. 8). Type of assay: cell-based. Here is the method: as §1
In order to verify that the peptide of the present invention acts also on other tissues or cells other than the MDA-MB-231 cell line, autophagy was induced in several kinds of cells (derived from different tissues) and their detection ability was confirmed using AtgPep-1 (CKHHLGAIC; SEQ ID NO: 1) and AtgPep-2 (CQQTKNYYC: SEQ ID NO: 2) which represent particularly high signals among AtgPep-1 to AtgPep-4. The experimental method is the same as described above.

In assay [5] the test system is MDA-MB-231 tumor after rapamycin autophagy induction. Nature of the assay: In vivo NIRF imaging of autophagy in tumor animal model. The following applies: flamma 675-labeled peptide, tail vein, 50 μM; 4 to 5 hours after peptide injection; rapamycin 1.5 mg per kg i.p. (FIG. 9). More on the design: species or system nude mouse. Here is the method:
As an experiment for monitoring and imaging autophagy using a peptide probe, tumor cells were transplanted into immunodeficient nude mice to grow tumors, and animal models for experiments were constructed. The MDA-MB-231 cell (10^6 cells), which was verified in the results of FIGS. 7A and 7B of the present invention, was injected into the femoral region of the nude mouse, and it was confirmed that the size of the tumor was 80 mm^3 after 10 days. In order to induce autophagy, rapamycin was injected intraperitoneally into each mouse in an amount of 1.5 mg per kg of the mouse. Two hours after the injection of rapamycin, AtgPep-2 (CQQTKNYYC: SEQ ID NO: 2) of the present invention, labeled with flamma 675 (=FPR675, Bioact Co., Korea), a near-infrared fluorescent (NIRF) was administered to each mouse (N=5 To 7) via tail vein at a final 50 μM concentration/mouse, while being allowed to circulate along the blood for 2 hours to obtain optical and fluorescence imaging at 2 hours, 4 hours, and 5 hours after the administration of the peptide. As a control, CNSSSVDKC peptide (Control, SEQ ID NO: 10) labeled with flamma 675 was injected at the same concentration and method. NIRF imaging signals were scanned and acquired using an IVIS imaging system (Caliper Life Sciences, Massachusetts, USA).

For assay [6], the system named is A549, HT1376, MDA-MB-231, HeLa and BEAS-2B cell lines. Nature of the assay: Western blotting of LC3 I and LC3 II for autophagy level. It counts as cell-based. The following applies: chloroquine treated together with rapamycin, 4 hours; all the cells (FIG. 1). As for the experimental part:
After 4 hours, the cells were washed two times with 1×PBS, followed by a western blotting was carried out to investigate the protein levels of LC3 I and LC3 II (hereinafter referred to as, LC3 I/II). In order to perform the western blotting, the cells were first lysed with RIPA buffer with 1/ml protease inhibitor cocktail in the drug-treated cells. The whole cell extracts were fractionated by SDS-PAGE, and transferred to a nitrocellulose membrane using a dry blot (Bio-Rad). The membranes were incubated with TBST (10 mM Tris, pH 8.0, 150 mM NaCl, 0.5% Tween 20) containing 5% nonfat milk for 60 minutes, then washed once with TBST. The membrane was treated with rabbit antibody against human LC3 I/II (abcam) and stirred overnight at 4° C. The membrane was washed 3 times for 10 min with TBST, then was incubated for 1 hour with the HRP-labeled antibody (mouse anti-rabbit IgG-HRP, Santa Cruz, Inc.) against the rabbit antibody isolated from a mouse as a secondary antibody (1:3000 dilution). After washing three times with TBST and developing according to the protocol of the manufacturer of the ECL system (Amersham Biosciences), an image was detected with a luminescent image analyzer (LAS100 Plus, Fujifilm, Japan).
(In general: In western blotting, separated proteins are transferred to a membrane and probed.)

Turning to “CNSSSVDKC (not fully specified; cysteine pairing not given here; also: flamma 675 label) [control peptide labeled with flamma 675, reference compound]”, the “target signal in the tumor tissue” value in assay [1] was “target signal was not present”.
“CQQTKNYYC (Artificial Amino acid sequence of AtgPep-2)”: the “binding specificity of phage clones to autophagy cells” value (“binding specificity of phage clones” below) in assay [2] is given as “high binding specificity to autophagy cells”. In assay [3], the “fluorescence signal on early autophagy cells” value was “strong fluorescence signals” and the “site of binding on autophagy-induced cells” value is given as “bound to the cell membrane of the autophagy cell”. The “targeting to autophagy cells in other cell types” value in assay [4] is given as “specifically targeted to autophagy cells regardless of cell types”. Moreover, the “tumor targeting in NIRF imaging versus control peptide” value in assay [5] is given as “significantly higher level”. For the same molecule, in assay [1], the “target signal in the tumor tissue” value was “significantly higher”.
Take “CNTGSPYEC (Artificial Amino acid sequence of AtgPep-3)”: the “binding specificity of phage clones” value in assay [2] is “high binding specificity to autophagy cells”.
Still for that read-out and setting: next, “CPPNTDRSC (Artificial Amino acid sequence of AtgPep-4)”: “high binding specificity to autophagy cells”.
As for “CKHHLGAIC (Artificial Amino acid sequence of AtgPep-1)”, in assay [2], the “binding specificity of phage clones” value was “high binding specificity to autophagy cells”. Moreover, in assay [3], the “fluorescence signal on early autophagy cells” value is recorded as “strong fluorescence signals” and the “site of binding on autophagy-induced cells” value is reported as “bound to the cell membrane of the autophagy cell”. Moreover, the “targeting to autophagy cells in other cell types” value in assay [4] was “specifically targeted to autophagy cells regardless of cell types”.
As to `CCN(CC)CCCC(C)Nc1ccnc2cc(Cl)ccc12` (centres unmarked) [chloroquine], the “production of LC3 II protein” value in assay [6] is recorded as “further increased”.
